Values quoted from earlier work, collected in patent US7972633B2, “Nutritional supplements for healthy memory and mental function” (Applied Cognitive Sciences, LLC, priority 2007, dated 2011).

Key:
[1] = system: healthy adults who have no evidence of cerebral dysfunction; conditions: two days' supplementation with 10, 20 or 40 mg daily, compared to placebo
[2] = system: patients with mild to moderate transient or permanent impairment of cognitive performance; conditions: 10 or 20 mg three times a day for 16 weeks, compared to placebo

Compound: CCOC(=O)C1=C[C@]2(CC)CCCN3CCc4c(n1c1ccccc41)[C@@H]32 [vinpocetine, Vinpocetine]
- ability to distinguish discrete sensory data, reaction time, short-term memory functions [1]: significantly greater extent than placebo
- concentration, memory and severity of illness [2]: significant improvements in concentration, memory, and reduced severity of illness
